Source: PMC2990756, “Quantitative High-Throughput Screening Identifies 8-Hydroxyquinolines as Cell-Active Histone Demethylase Inhibitors” (PLoS ONE, 2010)

Columns and labels:
JMJD2A = target: T1, JMJD2A (Homo sapiens, UniProt O75164); experiment: Cellular demethylase assay: H3K9me3 immunofluorescence in HeLa cells overexpressing Flag-JMJD2A; details: 2.5mM treatment, 24 hr
T1 sequence (O75164 1-1064): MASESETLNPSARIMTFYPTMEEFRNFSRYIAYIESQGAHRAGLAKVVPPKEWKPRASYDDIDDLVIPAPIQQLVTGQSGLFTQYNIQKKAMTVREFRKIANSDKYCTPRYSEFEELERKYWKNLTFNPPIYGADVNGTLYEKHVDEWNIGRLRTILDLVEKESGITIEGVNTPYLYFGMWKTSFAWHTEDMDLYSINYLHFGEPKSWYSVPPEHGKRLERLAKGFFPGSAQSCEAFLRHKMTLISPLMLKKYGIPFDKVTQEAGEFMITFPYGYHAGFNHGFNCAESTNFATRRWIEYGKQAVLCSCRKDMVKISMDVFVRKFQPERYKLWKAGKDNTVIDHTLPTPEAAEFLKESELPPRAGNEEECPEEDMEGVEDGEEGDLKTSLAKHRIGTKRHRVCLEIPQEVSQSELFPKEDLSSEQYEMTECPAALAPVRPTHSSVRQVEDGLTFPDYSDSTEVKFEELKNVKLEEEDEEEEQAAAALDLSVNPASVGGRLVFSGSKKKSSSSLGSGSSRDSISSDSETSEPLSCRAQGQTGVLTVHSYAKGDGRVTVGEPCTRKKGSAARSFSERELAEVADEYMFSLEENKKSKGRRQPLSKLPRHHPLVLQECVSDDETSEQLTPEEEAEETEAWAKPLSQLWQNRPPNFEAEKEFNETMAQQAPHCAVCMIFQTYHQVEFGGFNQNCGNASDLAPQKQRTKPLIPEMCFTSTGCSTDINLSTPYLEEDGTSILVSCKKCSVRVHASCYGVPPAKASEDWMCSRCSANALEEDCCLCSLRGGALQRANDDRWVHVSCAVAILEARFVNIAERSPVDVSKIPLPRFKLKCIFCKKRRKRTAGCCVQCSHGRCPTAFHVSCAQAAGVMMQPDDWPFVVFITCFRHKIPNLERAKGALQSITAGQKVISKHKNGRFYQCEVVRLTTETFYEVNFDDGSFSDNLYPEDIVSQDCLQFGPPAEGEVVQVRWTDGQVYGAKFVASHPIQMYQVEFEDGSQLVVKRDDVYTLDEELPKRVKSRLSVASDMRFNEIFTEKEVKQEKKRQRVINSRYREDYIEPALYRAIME
Description: Therefore, in order to automate this process a series of images were collected for each treatment on a standard epifluorescence microscope ( Figure 5A ) and then submitted to CellProfiler Software for analysis [29]. CellProfiler was configured to analyze the images for DAPI signal, a DNA stain, enabling the program to identify the location of individual cells and create a boundary that delineates the volume of the nuclear compartment. As not all cells in a given field are transfected, the Flag-JMJD2A-expressing cells were identified by quantifying the immunofluoresence signal resulting from the Flag antibody staining and using the mock transfected cells as a baseline for the signal intensity of non-transfected cells. Once the transfected cells were identified, the nuclear H3K9me3 immunofluorescence signal for each cell was quantified by CellProfiler. The levels of H3K9me3 staining intensity were analyzed in the DMSO vehicle treated or inhibitor treated samples. As a control and a means of determining maximal possible inhibition of demethylase activity, cells expressing the JMJD2A H188A catalytically deficient mutant were also quantified in each experiment. […] For each treatment a minimum of 400 transfected cells was analyzed and the final values of inhibition were derived from inhibition experiments carried out on three separate days (biological triplicates). […]

JMJD2E [1] = target: T2, JMJD2E (Homo sapiens, UniProt B2RXH2); experiment: JMJD2E FDH-coupled assay under low and high iron conditions (iron chelation profile); format: biochemical; design: The catalytic domain of human JMJD2E (residues 1–337); His6 (N); made in house; host or cells: E. coli; details: Table S1; for IC50: unit not in table, from Figure 2
T2 sequence (B2RXH2 1-337): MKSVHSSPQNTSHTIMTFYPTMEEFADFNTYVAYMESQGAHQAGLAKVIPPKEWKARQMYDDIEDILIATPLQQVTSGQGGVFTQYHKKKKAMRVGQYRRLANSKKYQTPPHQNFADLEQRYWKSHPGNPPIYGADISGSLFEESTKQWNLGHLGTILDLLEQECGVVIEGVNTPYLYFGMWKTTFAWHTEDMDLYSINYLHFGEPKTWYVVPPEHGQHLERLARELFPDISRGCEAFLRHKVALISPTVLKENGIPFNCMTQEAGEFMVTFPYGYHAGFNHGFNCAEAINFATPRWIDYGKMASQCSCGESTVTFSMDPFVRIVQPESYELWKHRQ
Protocol: The prioritized compounds were also evaluated in the screening assay using two different ferrous ion concentrations (termed high iron and low iron, respectively), in order to assess their propensity for iron chelation.
The ratio of IC50 values under high iron to low iron was calculated for each compound.

JMJD2E [2] = target: T2, JMJD2E; experiment: MALDI-TOF MS demethylation assay, JMJD2E; details: Table S1; for MALDI-TOF Data: Span: span of the fitted curve; for MALDI-TOF Data: Span / IC50: 2 µM JMJD2E; for IC50: read-out: MALDI-TOF Data: IC50, unit not in table, ~ values are poorly fitted
Protocol: Initially, JMJD2, Fe(II), ascorbate and inhibitors were pre-incubated for 15 min prior to the addition of peptide and 2OG. The reaction was incubated for 30 min before 1∶1 quenching with methanol followed by addition of four volumes of 20 mM triammonium citrate. […] The diluted assay mixture (1 µL) from JMJD2 and PHD2 assays were mixed with 1 µL of α-cyano-4-hydroxycinnamic acid and 1 µL of FIH assay mixture was mixed with 1 µL of sinapinic acid matrix, and assessed by matrix-assisted laser desorption/ionization-time of flight (MALDI-TOF).

JMJD2E (KDM4E) = target: T3, JMJD2E (KDM4E) (Homo sapiens, UniProt B2RXH2); experiment: qHTS fluorescence FDH-coupled JMJD2E demethylase assay; format: biochemical; details: Table S1; unit not in table, from Figure 2; read-out: qHTS Data: jmjd2e IC50
T3 construct: The catalytic domain of human JMJD2E (residues 1–337); His6 (N); made in house; host or cells: E. coli
T3 sequence (B2RXH2 1-337): T2 sequence (B2RXH2 1-337)

[3] = target: T4, formaldehyde dehydrogenase (FDH) (Pseudomonas putida, UniProt P46154); experiment: FDH coupling enzyme counterscreen; format: biochemical; details: Table S1, FDH counterscreen; for IC50: unit not in table, from Figure 2, read-out: qHTS Data: jmjd2e fdh IC50
T4 construct: purchased Sigma-Aldrich
Description: Dimethylsulfoxide certified ACS grade (DMSO) was from Fisher, Inc. HEPES buffer was obtained from Gibco. […] Black solid-bottom 1,536-well assay plates were from Greiner Bio-One (Monroe, NC).

[4] = high iron, head says 20 µM FAS, read-out: qHTS Data: jmjd2e fas20um IC50
[5] = low iron 2.5 µM FAS, read-out: qHTS Data: jmjd2e fas2.5um IC50

T4 sequence (P46154 whole entry): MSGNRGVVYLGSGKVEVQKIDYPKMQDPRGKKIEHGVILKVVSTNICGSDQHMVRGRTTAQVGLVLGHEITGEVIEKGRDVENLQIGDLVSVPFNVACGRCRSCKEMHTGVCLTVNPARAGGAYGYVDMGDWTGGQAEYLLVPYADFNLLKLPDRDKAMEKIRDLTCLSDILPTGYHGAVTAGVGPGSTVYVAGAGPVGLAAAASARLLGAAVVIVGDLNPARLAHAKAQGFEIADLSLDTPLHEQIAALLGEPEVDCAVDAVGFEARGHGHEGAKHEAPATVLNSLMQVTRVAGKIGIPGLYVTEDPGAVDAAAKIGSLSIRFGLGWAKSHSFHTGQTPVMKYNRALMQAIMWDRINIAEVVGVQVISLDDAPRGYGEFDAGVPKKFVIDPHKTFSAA

Compound | JMJD2A demethylase activity remaining (JMJD2A) | IC50 (JMJD2E [1]; [4]) | IC50 (JMJD2E [1]; [5]) | MALDI-TOF Data: Span (JMJD2E [2]) | IC50 (JMJD2E [2]) | IC50 (JMJD2E (KDM4E)) | qHTS Data: jmjd2e fdh CurveClass [3] | IC50 [3] | qHTS Data: jmjd2e fas2.5um Curve comment (JMJD2E [1]; low iron 2.5 µM FAS) | qHTS Data: jmjd2e fas20um CurveClass (JMJD2E [1]; high iron) | MALDI-TOF Data: Comments (JMJD2E [2])
COC(=O)CNC(=O)C(=O)OC [DMOG, dimethyloxalylglycine] | approximately 20% | – | – | – | – | – | – | – | – | – | –
CN1CCN(Cc2cc(COCc3ccccc3)c3cccnc3c2O)CC1 [compound 4248346] | – | 8.91 µM | 7.08 µM | 96.1 | 17.2 µM | 8.91 µM | Inactive | – | – | – | –
CCCCc1ccc(C(=O)O)nc1 [compound 11111188] | – | 1.58 µM | 3.55 µM | ~ 5848 | – | 3.98 µM | Inactive | – | – | – | –
C[C@@](Cc1ccc(O)c(O)c1)(NN)C(=O)O [compound 11113507] | – | 14.1 µM | 3.55 µM | 95.69 | 5.6 µM | 3.55 µM | Inactive | – | – | – | –
O=c1cc(-c2ccccc2)oc2cc(O)c(O)c(O)c12 [compound 11114203] | – | 8.91 µM | 2.24 µM | 89.05 | 5.8 µM | 0.89 µM | Inactive | – | – | – | –
c1cnc2c(c1)ccc1cccnc12 [compound 11533040] | – | 3.98 µM | 10 µM | 93.01 | ~26.5 µM | 0.25 µM | Inactive | – | – | – | –
Oc1ccc(NCc2ccccc2OCc2ccccc2F)cc1 [compound 17385881] | – | 8.91 µM | 8.91 µM | 3.087 | – | 5.01 µM | Poor quality curve | 14.1 µM | – | – | –
CCOc1cc(CNc2ccc(N3CCCCC3)cc2)cc(Br)c1OCC(=O)NC(C)(C)C [compound 22412645] | – | 3.16 µM | 39.8 µM | ~ 104.5 | – | 3.16 µM | Inactive | – | Inconclusive | – | –
CCOc1c(Cl)cc(CNc2ccc(N3CCCC3)cc2)cc1OC [compound 24795526] | – | 19.9 µM | 3.98 µM | ~ 11904 | – | 8.91 µM | Inactive | – | – | Poor quality curve | –
O=c1nc(N/N=C/c2ccccn2)cn[nH]1 [compound 24822918] | – | 15.8 µM | 7.08 µM | 97.61 | ~7.05 µM | 10 µM | Inconclusive | – | – | – | –
O=c1c2ccccc2sn1-c1nccs1 [compound 24830882] | – | 3.98 µM | 7.94 µM | 82.19 | 10.2 µM | 7.94 µM | Inactive | – | – | – | –
COc1cccc(/C=N/NC(=O)CNC(=O)COc2cccc(C)c2)c1O [compound 26660958] | – | – | 4.47 µM | 89.52 | 10.2 µM | 2.82 µM | Inactive | – | – | Inconclusive | –
COc1cccc(/C=N/NC(=O)CNC(=O)CCc2ccccc2)c1O [compound 26660959] | – | 12.6 µM | 7.08 µM | 88.08 | 8.6 µM | 3.98 µM | Inconclusive | 39.8 µM | – | – | –
C(=N\Nc1nc(-c2ccccn2)nc2ccccc12)/c1ccccc1 [compound 26666061] | – | 10 µM | 22.4 µM | – | – | 8.91 µM | Inactive | – | – | – | solubility problems
C=CCn1c(SCC(=O)c2ccc(O)c(O)c2)nnc1-c1cccnc1 [compound 26671532] | – | 1.26 µM | 7.94 µM | 91.73 | 11.8 µM | 3.55 µM | Poor quality curve | 14.1 µM | – | – | –
COc1ccc(/C=C/C(=O)NC(=S)NNC(=O)c2cnccn2)cc1 [compound 26725781] | – | 8.91 µM | 10 µM | 94.6 | 3.5 µM | 7.94 µM | Inactive | – | – | – | –
Nc1ccc2nc3c(=O)n(CCc4ccccc4)c(=O)[nH]c3nc2c1 [compound 26726384] | – | 14.1 µM | 7.08 µM | 51.81 | 141 µM | 1.78 µM | Inactive | – | Poor quality curve | – | –
CN(C)C1C(=O)C(C(N)=O)=C(O)[C@@]2(O)C(=O)C3=C(O)c4c(O)cccc4[C@@](C)(O)C3[C@H](O)C12 (some centres unmarked) [compound 50105558] | – | 8.91 µM | 14.1 µM | 94.16 | 54.8 µM | 2 µM | Poor quality curve | 3.55 µM | – | – | –
Br.Oc1ccc(C2CNCCc3c2cc(O)c(O)c3Cl)cc1 (centres unmarked) [compound 50106351] | – | 7.94 µM | 6.31 µM | 93.35 | 8.4 µM | 25.1 µM | Inactive | – | – | – | –
NC(Cc1cc(O)c(O)cc1O)C(=O)O (centres unmarked) [compound 50106437] | – | 2.24 µM | 7.94 µM | – | – | 12.6 µM | Inactive | – | – | – | solubility problems
